Data reported in the Kinase Knowledgebase extract (Sharma et al. 2016).

Biological target: MAPK14 (UniProt Q16539)
Experiment: Inhibition of MAPK14 Kinase Activity

Sequence of MAPK14 (Q16539 whole entry, looked up): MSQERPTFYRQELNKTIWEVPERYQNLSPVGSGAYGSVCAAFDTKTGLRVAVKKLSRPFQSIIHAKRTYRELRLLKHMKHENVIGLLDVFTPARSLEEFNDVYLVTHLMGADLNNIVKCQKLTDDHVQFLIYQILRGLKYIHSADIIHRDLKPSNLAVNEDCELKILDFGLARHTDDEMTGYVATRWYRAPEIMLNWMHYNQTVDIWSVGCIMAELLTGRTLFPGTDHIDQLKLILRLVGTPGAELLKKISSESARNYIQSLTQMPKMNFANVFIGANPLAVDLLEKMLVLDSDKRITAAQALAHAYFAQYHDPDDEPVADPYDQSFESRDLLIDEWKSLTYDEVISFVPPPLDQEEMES

IC50, < 1 µM:
COc1ccc(C(C)C(F)(F)F)cc1NC(=O)Nc1ccc(Oc2cc(C)nc(N)n2)c2ccccc12 (centres undefined)
COc1ccc(C(F)(F)F)cc1NC(=O)Nc1ccc(Oc2cc(C)nc(CN3CCN(C)CC3)n2)c2ccccc12
COc1c(NC(=O)Nc2ccc(Oc3cc(C)nc(C)n3)c3ccccc23)cc(C(F)(F)F)cc1NS(C)(=O)=O
CCNc1nc(C)cc(Oc2ccc(NC(=O)Nc3cc(C(F)(F)F)ccc3OC)c3ccccc23)n1
COc1ccc(C(C(F)(F)F)C(F)(F)F)cc1NC(=O)Nc1ccc(Oc2cc(C)nc(N)n2)c2ccccc12
COc1ccc(CC(F)(F)F)cc1NC(=O)Nc1ccc(Oc2cc(C)nc(N)n2)c2ccccc12
COc1ccc(OC(F)(F)F)cc1NC(=O)Nc1ccc(Oc2cc(C)nc(CN(C)C)n2)c2ccccc12
COc1ccc(C(F)(F)C(F)(F)F)cc1NC(=O)Nc1ccc(Oc2cc(C)nc(N)n2)c2ccccc12
COc1ccc(C(F)(F)F)cc1NC(=O)Nc1ccc(Oc2cc(C)nc(NCCN3CCCC3)n2)c2ccccc12
COc1ccc(C(F)(F)F)cc1NC(=O)Nc1ccc(Oc2cc(C)nc(C)n2)c2ccccc12
COc1ccc(CC(F)(F)F)cc1NC(=O)Nc1ccc(Oc2cc(C)nc(NCCCN3CCOCC3)n2)c2ccccc12
COCCNc1nc(C)cc(Oc2ccc(NC(=O)Nc3cc(C(F)(F)F)ccc3OC)c3ccccc23)n1
COc1ccc(OC(F)(F)F)cc1NC(=O)Nc1ccc(Oc2cc(C)nc(CN3CCCC3)n2)c2ccccc12
COc1ccc(OC(F)(F)F)cc1NC(=O)Nc1ccc(Oc2cc(C)nc(NCCN3CCCC3)n2)c2ccccc12
COc1ccc(CC(F)(F)F)cc1NC(=O)Nc1ccc(Oc2cc(C)nc(NCCCN(C)C)n2)c2ccccc12
COc1ccc(C(F)(F)F)cc1NC(=O)Nc1ccc(Oc2cc(C)nc(NCC3CC3)n2)c2ccccc12
COc1ccc(C(F)(F)F)cc1NC(=O)Nc1ccc(Oc2cc(C)nc(N)n2)c2ccccc12
COc1ccc(OC(F)(F)F)cc1NC(=O)Nc1ccc(Oc2cc(C)nc(NCCCN3CCOCC3)n2)c2ccccc12
COc1nc(C)cc(Oc2ccc(NC(=O)Nc3cc(C(F)(F)F)ccc3OC)c3ccccc23)n1
COc1ccc(OC(F)(F)F)cc1NC(=O)Nc1ccc(Oc2cc(C)nc(CN3CCOCC3)n2)c2ccccc12
COc1ccc(C(F)(F)F)cc1NC(=O)Nc1ccc(Oc2cc(C)nc(NCCN(C)C)n2)c2ccccc12
COCC(C)Nc1nc(C)cc(Oc2ccc(NC(=O)Nc3cc(C(F)(F)F)ccc3OC)c3ccccc23)n1 (centres undefined)
COc1ccc(C(F)(F)F)cc1NC(=O)Nc1ccc(Oc2cc(C)nc(NC(C)C)n2)c2ccccc12
COc1ccc(C(C(F)(F)F)C(F)(F)F)cc1NC(=O)Nc1ccc(Oc2cc(C)nc(NCCN(C)C)n2)c2ccccc12
COc1ccc(OC(F)(F)F)cc1NC(=O)Nc1ccc(Oc2cc(C)nc(OCCn3ccnc3)n2)c2ccccc12
COc1ccc(OC(F)(F)F)cc1NC(=O)Nc1ccc(Oc2cc(C)nc(NCCN(C)C)n2)c2ccccc12
COc1ccc(C(F)(F)F)cc1NC(=O)Nc1ccc(Oc2cc(C)nc(CN3CCOCC3)n2)c2ccccc12
COc1ccc(C(F)(F)F)cc1NC(=O)Nc1ccc(Oc2cc(C)nc(NCC3CCCO3)n2)c2ccccc12 (centres undefined)
CCNc1nc(C)cc(Oc2ccc(NC(=O)Nc3cc(OC(F)(F)F)ccc3OC)c3ccccc23)n1
CNc1nc(C)cc(Oc2ccc(NC(=O)Nc3cc(C(F)(F)F)ccc3OC)c3ccccc23)n1
COc1ccc(CC(F)(F)F)cc1NC(=O)Nc1ccc(Oc2cc(C)nc(OCC3CCN(C)CC3)n2)c2ccccc12
COc1ccc(C(F)(F)F)cc1NC(=O)Nc1ccc(Oc2cc(C)nc(NCC(O)CO)n2)c2ccccc12 (centres undefined)
COc1ccc(OC(F)(F)F)cc1NC(=O)Nc1ccc(Oc2cc(C)nc(CN3CCN(C)CC3)n2)c2ccccc12
COc1ccc(C(F)(F)F)cc1NC(=O)Nc1ccc(Oc2cc(C)nc(CN(C)C)n2)c2ccccc12
CNc1nc(C)cc(Oc2ccc(NC(=O)Nc3cc(OC(F)(F)F)ccc3OC)c3ccccc23)n1
COc1ccc(C(F)(F)F)cc1NC(=O)Nc1ccc(Oc2cc(C)nc(NC3CC3)n2)c2ccccc12
COc1ccc(C(C(F)(F)F)C(F)(F)F)cc1NC(=O)Nc1ccc(Oc2cc(C)nc(CN3CCOCC3)n2)c2ccccc12
COc1ccc(C(F)(F)F)cc1NC(=O)Nc1ccc(Oc2cc(C)nc(NCCN3CCOCC3)n2)c2ccccc12
COCCNc1nc(C)cc(Oc2ccc(NC(=O)Nc3cc(OC(F)(F)F)ccc3OC)c3ccccc23)n1
